Data from US7495027B2, “3-aryl-4-hydroxyfuranone compounds and the human and animal health use thereof” (Wyeth, priority 2003, dated 2009).
In brackets after ≈: the same amount, converted by molar mass. Read-outs that look alike come from different tables or passages of the source.

Legend:
[1] = molecular target: E. coli Enopyruvyl-UPD-N-acetylglucosamine reductase, Mur B (Escherichia coli, UniProt P08373); assay: biochemical; conditions: (E) E. coli enzyme; for IC50: read-out: MurB IC50 (converted)
Sequence of E. coli Enopyruvyl-UPD-N-acetylglucosamine reductase, Mur B (P08373 whole entry): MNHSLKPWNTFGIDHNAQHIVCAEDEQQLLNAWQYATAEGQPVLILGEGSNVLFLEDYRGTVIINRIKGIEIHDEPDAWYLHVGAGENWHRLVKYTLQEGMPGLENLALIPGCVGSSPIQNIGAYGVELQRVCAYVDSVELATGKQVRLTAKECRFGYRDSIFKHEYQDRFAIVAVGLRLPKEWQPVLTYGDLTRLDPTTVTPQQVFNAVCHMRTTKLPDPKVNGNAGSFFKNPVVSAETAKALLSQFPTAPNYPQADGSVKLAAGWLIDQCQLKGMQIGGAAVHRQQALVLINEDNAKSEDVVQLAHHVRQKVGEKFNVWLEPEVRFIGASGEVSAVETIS

[2] = molecular target: T1, S. aureus Enopyruvyl-UPD-N-acetylglucosamine reductase, Mur B (Staphylococcus aureus, UniProt P61431); assay: biochemical; conditions: (S) S. aureus enzyme; read-out: MurB IC50 (converted)
T1 sequence (P61431 1-307): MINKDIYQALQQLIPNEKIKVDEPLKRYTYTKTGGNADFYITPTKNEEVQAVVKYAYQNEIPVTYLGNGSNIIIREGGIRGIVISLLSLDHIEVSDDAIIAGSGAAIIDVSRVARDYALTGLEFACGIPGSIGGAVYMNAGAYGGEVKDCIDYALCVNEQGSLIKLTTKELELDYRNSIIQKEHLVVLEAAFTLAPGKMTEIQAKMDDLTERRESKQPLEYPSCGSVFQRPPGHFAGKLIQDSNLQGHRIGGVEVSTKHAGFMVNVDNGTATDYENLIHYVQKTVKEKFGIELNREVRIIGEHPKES

enterococci = assay: Minimum inhibitory concentration, microdilution broth method, enterococci; type: cell-based; conditions: Enterococcus faecalis, Mueller-Hinton broth, 18-22 hours at 35° C.
Outline: (§1)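 Broth microdilution per NCCLS M7-A5 (2000). Staphylococci and enterococci grown in Mueller-Hinton broth; streptococci in Mueller-Hinton broth with 5% horse blood (LHB). Panel includes recent clinical isolates resistant to methicillin, penicillin and/or vancomycin.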

staphylococci = assay: Minimum inhibitory concentration, microdilution broth method, staphylococci; type: cell-based; conditions: Staphylococcus aureus, Mueller-Hinton broth, 18-22 hours at 35° C.
Outline: as §1

[3] = molecular target: E. coli Uridine-diphosphate-N-acetvimuramoyl: L-alanine lipase, MurC (Escherichia coli, UniProt P17952); assay: Inhibitory activity against MurC (E. coli); type: biochemical; conditions: (E) E. coli enzyme; for IC50: read-out: MurC IC50 (converted)
Sequence of E. coli Uridine-diphosphate-N-acetvimuramoyl: L-alanine lipase, MurC (P17952 whole entry): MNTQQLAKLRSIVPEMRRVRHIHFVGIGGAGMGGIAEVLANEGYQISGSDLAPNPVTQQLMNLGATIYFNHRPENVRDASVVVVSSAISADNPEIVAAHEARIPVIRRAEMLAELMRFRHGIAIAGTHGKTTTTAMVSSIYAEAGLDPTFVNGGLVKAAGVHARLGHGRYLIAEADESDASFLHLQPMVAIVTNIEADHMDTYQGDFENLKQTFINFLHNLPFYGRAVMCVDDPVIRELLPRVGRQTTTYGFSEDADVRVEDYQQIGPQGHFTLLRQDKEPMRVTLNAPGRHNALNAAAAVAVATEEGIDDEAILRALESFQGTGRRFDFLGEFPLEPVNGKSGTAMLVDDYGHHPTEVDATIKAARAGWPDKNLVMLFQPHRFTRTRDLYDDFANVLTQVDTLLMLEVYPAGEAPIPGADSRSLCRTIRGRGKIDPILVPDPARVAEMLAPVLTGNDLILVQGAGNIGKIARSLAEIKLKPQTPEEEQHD

Streptococci = assay: Minimum inhibitory concentration, microdilution broth method, streptococci; type: cell-based; conditions: S. pneumo GC 1894; Mueller-Hinton broth with 5% horse blood, 18-22 hours at 35° C.
Outline: as §1

[4] = molecular target: E. coli Uridine-diphosphate-N-acetylmuramoyl-L-alanine: D-glutamate liease, MurD (Escherichia coli, UniProt P14900); assay: biochemical; conditions: (E) E. coli enzyme
Sequence of E. coli Uridine-diphosphate-N-acetylmuramoyl-L-alanine: D-glutamate liease, MurD (P14900 whole entry): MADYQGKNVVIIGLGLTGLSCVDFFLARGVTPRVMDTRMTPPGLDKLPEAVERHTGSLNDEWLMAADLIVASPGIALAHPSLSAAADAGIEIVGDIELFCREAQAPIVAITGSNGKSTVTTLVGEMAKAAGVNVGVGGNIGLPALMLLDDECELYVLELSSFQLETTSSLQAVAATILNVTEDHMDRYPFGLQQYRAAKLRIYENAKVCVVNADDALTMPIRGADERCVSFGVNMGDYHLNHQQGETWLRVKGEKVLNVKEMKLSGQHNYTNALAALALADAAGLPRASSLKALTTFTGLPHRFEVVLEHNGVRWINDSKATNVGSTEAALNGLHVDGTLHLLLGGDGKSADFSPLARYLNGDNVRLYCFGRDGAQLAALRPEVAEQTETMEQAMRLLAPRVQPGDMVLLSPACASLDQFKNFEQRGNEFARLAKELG
Outline: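 Compound working solutions reach 100 μg/mL in 50 mM Tris/HCl (pH 8.5) after dilution of 10 mg/mL DMSO stocks; final level in the well not given here. Reaction buffer finals: 2 mM ATP, 50 mM MgCl2, 83 mM Tris/HCl, pH 8.0.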

[5] = molecular target: E. coli UDP-N-acetylglucosamine enolpyruvoyl transferase, MurA (Escherichia coli, UniProt P0A749); assay: biochemical; conditions: (E) E. coli enzyme
Sequence of E. coli UDP-N-acetylglucosamine enolpyruvoyl transferase, MurA (P0A749 whole entry): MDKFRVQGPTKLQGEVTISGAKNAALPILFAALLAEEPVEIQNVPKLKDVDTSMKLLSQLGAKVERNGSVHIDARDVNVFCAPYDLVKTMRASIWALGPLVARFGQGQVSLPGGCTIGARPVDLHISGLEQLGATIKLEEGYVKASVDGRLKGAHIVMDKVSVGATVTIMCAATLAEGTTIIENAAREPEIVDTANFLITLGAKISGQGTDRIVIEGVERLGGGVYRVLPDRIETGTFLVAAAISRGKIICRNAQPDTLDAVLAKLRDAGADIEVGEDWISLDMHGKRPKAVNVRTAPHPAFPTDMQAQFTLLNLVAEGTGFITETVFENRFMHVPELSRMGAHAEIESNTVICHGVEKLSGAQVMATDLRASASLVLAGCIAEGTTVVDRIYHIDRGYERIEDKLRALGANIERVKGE
Outline: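 Enzyme in 50 mM Tris/HCl pH 8.0 with 5 mM DTT and 20% glycerol was pre-incubated 10 min at 37° C with test compound in DMSO/water. Tris/BME and assay buffer then started the 1 hr, 37° C reaction, with a baseline 340 nm reading taken at start. Stop solution followed, and colour developed 30 minutes.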

[6] = molecular target: T2, S. aureus UDP-N-acetylglucosamine enolpyruvoyl transferase, MurA (Staphylococcus aureus, UniProt P84058); assay: Inhibitory activity against MurA (S. aureus); type: biochemical; conditions: (S) S. aureus enzyme
T2 sequence (P84058 1-421): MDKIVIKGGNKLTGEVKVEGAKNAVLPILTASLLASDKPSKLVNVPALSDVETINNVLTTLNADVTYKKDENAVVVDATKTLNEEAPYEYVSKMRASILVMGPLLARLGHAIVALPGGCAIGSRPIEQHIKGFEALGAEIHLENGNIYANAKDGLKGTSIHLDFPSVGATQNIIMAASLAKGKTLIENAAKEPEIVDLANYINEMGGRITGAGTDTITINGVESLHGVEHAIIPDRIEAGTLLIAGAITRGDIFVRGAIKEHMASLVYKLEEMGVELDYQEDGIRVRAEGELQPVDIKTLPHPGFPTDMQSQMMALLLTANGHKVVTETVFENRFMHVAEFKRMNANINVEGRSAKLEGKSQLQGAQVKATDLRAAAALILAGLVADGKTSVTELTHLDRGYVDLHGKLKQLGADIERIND
Protocol: Evaluation of the Inhibitory Activity of Test Compounds Against Enzymes which Catalyze Bacterial Cell Wall Biosynthesis
S. aureus and E. coli UDP-N-acetylglucosamine enolpyruvoyl transferase, MurA
(§2) Preparation of Enzyme Solution:
The enzyme solution is prepared by admixing the following: 50 mM Tris/HCl pH 8.0, […] 1 M Tris, 5 mM DTT, […] 1 M DTT, 20% Glycerol 4 ml 50% Glycerol, add water to 10 ml.
(§3) Preparation of Stop Solution:
The stop solution is prepared by mixing the following: 4.2% ammonium molybdate in 4N HCl, 8.4 g/200 ml 4N HCl, 0.045% malachite green, 90 mg/200 ml water, then stir 1 part ammonium molybdate with 2 parts malachite green for 30 min.
A procedure similar to that described by C. T. Walsh in Biochemistry 33, 10646-10651, is used to evaluate the inhibitory activity of test compounds against MurA, the enzyme which catalyzes the first step of bacterial cell wall biosynthesis. Experiments are performed by adding a solution of test compound (in a mixture of dimethylsulfoxide and water) and an enzyme solution to a well. After a pre-incubation period of 10 mintues at 37° C., Tris/BME buffer and assay buffer are added. A start point optical density (OD0) reading is taken at 340 nm immediately following the addition of assay buffer. After incubation for 1 hr at 37° C., the stop solution is added and the color is allowed to develop for 30 minutes. An end point OD1 reading at […] is then taken. […]

[7] = molecular target: T3, S. aureus Uridine-diphosphate-N-acetvimuramoyl: L-alanine lipase, MurC (Staphylococcus aureus, UniProt Q2FXJ0); assay: biochemical; conditions: (S) S. aureus enzyme; read-out: MurC IC50 (converted)
T3 sequence (Q2FXJ0 1-437): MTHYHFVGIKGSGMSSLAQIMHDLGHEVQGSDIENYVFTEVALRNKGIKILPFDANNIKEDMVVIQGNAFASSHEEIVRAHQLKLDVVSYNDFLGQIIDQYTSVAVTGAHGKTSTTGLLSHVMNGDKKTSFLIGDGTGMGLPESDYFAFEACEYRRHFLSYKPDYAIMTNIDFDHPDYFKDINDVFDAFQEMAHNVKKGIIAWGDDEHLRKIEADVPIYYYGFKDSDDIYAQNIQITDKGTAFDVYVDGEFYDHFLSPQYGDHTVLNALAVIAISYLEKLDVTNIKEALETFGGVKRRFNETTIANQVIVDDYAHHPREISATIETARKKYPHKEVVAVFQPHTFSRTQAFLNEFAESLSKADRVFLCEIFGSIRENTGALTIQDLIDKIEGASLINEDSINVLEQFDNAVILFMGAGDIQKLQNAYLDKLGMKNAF
Protocol: S. aureus and E. coli Uridine-diphosphate-N-acetvimuramoyl: L-alanine lipase, MurC
as §2
A 1 mg/mL stock solution of MurC is prepared in a buffer consisting of 20 mM Tris/HCl (pH 8.5) with 2.5 μM BME. The stock solution is further diluted with the buffer to give a final enzyme concentration of 100 μg/mL for the E. coli stock solution and 70 μg/mL for the S. aureus stock solution.
(§4) Preparation of Test Compound Solutions:
(§5) All test solutions are prepared in DMSO as 10 mg/mL, then diluted with 50 mM Tris/HCl (pH 8.5) to 100 μg/mL.
as §3
The stop solution is prepared by stirring 1 part 4.2% ammonium molydbate in 4N HCl with 2 parts 0.045% malachite green for 30 min.
In this evaluation, the inhibitory activity of a test compound against MurC, the enzyme which catalyzes the third step of bacterial cell wall bioxynthesis is determined. Experiments are performed by adding 2.5 μl buffer, 2.5 μl 0.5M NH4SO2, 5 μl 2 μM L-Ala, 5 μl enzyme solution and 6.5 μl test compound solution to each well in a 96-well microplate. After a pre-incubation period of 10 mins. at 23° C., 3.75 μl of a 0.75 μM solution of UDP-MurNac is added to each well. Following an incubation period of 10 mins. at 37° C., 210 μl stop solution and 50 μl of a 34% w/v sodium citrate solution are added and color is allowed to develop for 10 mins. at 23° C. (Lanzetta et al., Analytical Biochemistry, 1979, 95) Optical density readings are taken at 660 nm using a Molecular Devices Spectra Max 250 with Soft Max software. Controls are performed using the same procedure and omitting the addition of UDP-MurNac. […]
Using these values the IC50 is determined by linear regression analysis.

[8] = molecular target: T4, S. aureus Uridine-diphosphate-N-acetylmuramoyl-L-alanine: D-glutamate liease, MurD (Staphylococcus aureus, UniProt Q2FZ92); assay: biochemical; conditions: (S) S. aureus enzyme
T4 sequence (Q2FZ92 1-449): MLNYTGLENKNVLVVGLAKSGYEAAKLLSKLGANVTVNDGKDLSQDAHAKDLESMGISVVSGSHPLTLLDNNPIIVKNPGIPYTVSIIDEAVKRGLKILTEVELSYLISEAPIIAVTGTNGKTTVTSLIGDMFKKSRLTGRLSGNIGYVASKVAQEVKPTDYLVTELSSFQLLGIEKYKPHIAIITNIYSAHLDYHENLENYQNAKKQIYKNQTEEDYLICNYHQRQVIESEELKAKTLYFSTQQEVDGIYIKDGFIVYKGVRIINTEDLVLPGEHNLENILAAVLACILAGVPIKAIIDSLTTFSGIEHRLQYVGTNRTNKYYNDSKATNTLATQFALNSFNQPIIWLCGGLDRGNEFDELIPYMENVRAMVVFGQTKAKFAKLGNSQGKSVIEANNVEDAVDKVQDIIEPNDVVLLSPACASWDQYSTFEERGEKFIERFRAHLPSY
Protocol: S. aureus and E. coli Uridine-diphosphate-N-acetylmuramoyl-L-alanine: D-glutamate liease, MurD
as §2, §4, §5, §3
In this evaluation, the inhibitory activity of a test compound against MurD, the enzyme which catalyzes the fourth step of bacterial cell wall biosynthesis is determined.

[9] = E. faecalis GC 2242, read-out: MIC E. faecalis GC 2242
[10] = E. faecalis GC 4555, read-out: MIC E. faecalis GC 4555
[11] = S. aureus GC 1131, read-out: MIC S. aureus GC 1131
[12] = S. aureus GC 4543, read-out: MIC S. aureus GC 4543

SMILES: O=C1O/C(=C\c2cccc3ccccc23)C(O)=C1c1cccc(C(F)(F)F)c1 [Example 5]
- MurB IC50 [1]: 8 µg/mL
- IC50 [2]: 15.7 µM
- MIC (enterococci; [9]): 8 µg/mL (≈ 20.9 µM)
- MIC (enterococci; [10]): 16 µg/mL (≈ 41.8 µM)
- MIC (staphylococci; [11]): 8 µg/mL (≈ 20.9 µM)
- MIC (staphylococci; [12]): 8 µg/mL (≈ 20.9 µM)
- MurC IC50 [3]: 6 (E) μg/mL
- MIC (Streptococci): 0.5 µg/mL (≈ 1.31 µM)

SMILES: COc1ccc(C2=C(O)/C(=C/c3cccc4ccccc34)OC2=O)cc1 [Example 6]
- IC50 [1]: > 72.6 µM
- IC50 [2]: 61 µM
- IC50 [4]: > 72.6 µM
- MIC (enterococci; [9]): 32 µg/mL (≈ 92.9 µM)
- MIC (enterococci; [10]): > 128 µg/mL
- MIC (staphylococci; [11]): 32 µg/mL (≈ 92.9 µM)
- MIC (staphylococci; [12]): 64 µg/mL (≈ 186 µM)
- IC50 [5]: > 72.6 µM
- IC50 [3]: 46.5 µM
- MIC (Streptococci): 8 µg/mL (≈ 23.2 µM)

SMILES: COc1ccc(C2=C(O)/C(=C/c3ccc4ccccc4c3)OC2=O)cc1 [Example 7]
- IC50 [1]: 61 µM
- IC50 [4]: > 72.6 µM
- MIC (enterococci; [9]): 32 µg/mL (≈ 92.9 µM)
- MIC (enterococci; [10]): 64 µg/mL (≈ 186 µM)
- MIC (staphylococci; [11]): 32 µg/mL (≈ 92.9 µM)
- MIC (staphylococci; [12]): 64 µg/mL (≈ 186 µM)
- IC50 [5]: > 72.6 µM
- melting point: 257 to 258.5 °C
- IC50 [3]: 37.8 µM
- MIC (Streptococci): 2 µg/mL (≈ 5.81 µM)

SMILES: COc1ccc(C2=C(O)/C(=C/c3ccc(-c4ccccc4)cc3)OC2=O)cc1 [Example 9]
- IC50 [1]: 43.2 µM
- IC50 [4]: > 67.5 µM
- MIC (enterococci; [9]): 8 µg/mL (≈ 21.6 µM)
- MIC (enterococci; [10]): 64 µg/mL (≈ 173 µM)
- MIC (staphylococci; [11]): 32 µg/mL (≈ 86.4 µM)
- MIC (staphylococci; [12]): > 128 µg/mL
- IC50 [5]: > 67.5 µM
- melting point: 266 to 269 °C
- IC50 [3]: > 67.5 µM
- MIC (Streptococci): < 0.125 µg/mL

SMILES: CC(=O)c1ccccc1-c1ccc(/C=C2\OC(=O)C(c3cc(Cl)cc(Cl)c3)=C2O)cc1C [Example 40]
- IC50 [6]: 30.1 µM
- IC50 [7]: 8.6 µM
- MIC (enterococci; [9]): 2 µg/mL (≈ 4.3 µM)
- MIC (enterococci; [10]): 2 µg/mL (≈ 4.3 µM)
- MIC (staphylococci; [11]): 1 µg/mL (≈ 2.15 µM)
- MIC (staphylococci; [12]): 1 µg/mL (≈ 2.15 µM)
- IC50 [8]: 15 µM
- MIC (Streptococci): < 0.125 µg/mL

SMILES: O=C1O/C(=C\c2cccc(-c3ccc(Cl)c(Cl)c3)c2)C(O)=C1c1ccc(Cl)c(Cl)c1 [Example 135]
- IC50 [1]: 6.27 µM
- IC50 [2]: 6.27 µM
- MIC (enterococci; [9]): 4 µg/mL (≈ 8.37 µM)
- MIC (enterococci; [10]): 4 µg/mL (≈ 8.37 µM)
- MIC (staphylococci; [11]): 32 µg/mL (≈ 66.9 µM)
- MIC (staphylococci; [12]): 1 µg/mL (≈ 2.09 µM)
- IC50 [8]: 12.5 µM
- IC50 [5]: 4.18 µM
- IC50 [3]: 12.5 µM
- MIC (Streptococci): 1 µg/mL (≈ 2.09 µM)
